Source: ChEMBL document CHEMBL5550186, “Exploring the Potential of Cyclic Peptidyl Antitumor Agents Derived from Natural Macrocyclic Peptide Phakellistatin 13” (J Med Chem, 2024)
Active and inactive are the calls of the source. The rule behind the calls is not given here.

Tests used:
[1] = tested on: MDA-MB-231; assay: Antiproliferative activity against human MDA-MB-231 cells incubated for 48 hrs by MTT assay; assay type: functional, cell-based; details: MDA-MB-231, 48 h
[2] = tested on: HepG2; assay: Induction of morphological changes in human HepG2 cells assessed as cell shrinkage at 40 uM measured after 12 to 24 hrs by fluorescence inverted microscopic analysis; assay type: functional, cell-based; details: time 12-24 hrs
[3] = tested on: HepG2; assay: Induction of morphological changes in human HepG2 cells assessed as appearance of round morphology at 40 uM measured after 12 to 24 hrs by fluorescence inverted microscopic analysis; assay type: functional, cell-based; details: time 12-24 hrs
[4] = tested on: HepG2; assay: Induction of apoptosis in human HepG2 cells assessed as viable cells at 5 uM incubated for 48 hrs by annexin V-FITC/PI staining based flow cytometry analysis (reference value: 99.3%); assay type: functional; details: read-out: Activity
[5] = tested on: HepG2; assay: Induction of apoptosis in human HepG2 cells assessed as viable cells at 10 uM incubated for 48 hrs by annexin V-FITC/PI staining based flow cytometry analysis (reference value: 99.3%); assay type: functional; details: read-out: Activity
[6] = tested on: HepG2; assay: Induction of apoptosis in human HepG2 cells assessed as early apoptotic cells at 10 uM incubated for 48 hrs by annexin V-FITC/PI staining based flow cytometry analysis (reference value: 0.50%); assay type: functional
[7] = tested on: HepG2; assay: Induction of apoptosis in human HepG2 cells assessed as late apoptotic cells at 5 uM incubated for 48 hrs by annexin V-FITC/PI staining based flow cytometry analysis (reference value: 0.16%); assay type: functional
[8] = tested on: HepG2; assay: Induction of apoptosis in human HepG2 cells assessed as late apoptotic cells at 20 uM incubated for 48 hrs by annexin V-FITC/PI staining based flow cytometry analysis (reference value: 0.16%); assay type: functional
[9] = tested on: HepG2; assay: Induction of apoptosis in human HepG2 cells assessed as necrotic cells at 5 uM incubated for 48 hrs by annexin V-FITC/PI staining based flow cytometry analysis (reference value: 0%); assay type: functional
[10] = tested on: HepG2; assay: Induction of cell cycle arrest in human HepG2 cells assessed as accumulation of cells at 2N phase at 10 uM incubated for 48 hrs by PI staining based flow cytometry analysis (reference value: 26.0%); assay type: functional
[11] = tested on: HepG2; assay: Induction of cell cycle arrest in human HepG2 cells assessed as accumulation of cells at S phase at 10 uM incubated for 24 hrs by PI staining based flow cytometry analysis (reference value: 39.6%); assay type: functional
[12] = tested on: HepG2; assay: Induction of cell cycle arrest in human HepG2 cells assessed as accumulation of cells at S phase at 10 uM incubated for 48 hrs by PI staining based flow cytometry analysis (reference value: 39.6%); assay type: functional
[13] = tested on: HepG2; assay: Induction of cell cycle arrest in human HepG2 cells assessed as assessed as accumulation of cells at >G2/M phase at 10 uM incubated for 12 hrs by PI staining based flow cytometry analysis (reference value: 28.0%); assay type: functional
[14] = tested on: HepG2; assay: Induction of cell cycle arrest in human HepG2 cells assessed as accumulation of cells at >G2/M phase at 20 uM incubated for 48 hrs by PI staining based flow cytometry analysis (reference value: 28.0%); assay type: functional
[15] = tested on: HepG2; assay: Upregulation of cytochrome c level in human HepG2 cells at 5 to 20 uM measured after 48 hrs by Western blot analysis; assay type: functional, cell-based; details: dose 5-20 µM
[16] = Toxicity in Balb/c mouse assessed as effect on lung at 6 mg/kg, iv measured after 14 days by H and E staining based analysis; assay type: organism-based; details: in vivo, 336 h, time 14 day
[17] = Toxicity in Balb/c mouse assessed as effect on kidney at 6 mg/kg, iv measured after 14 days by H and E staining based analysis; assay type: organism-based; details: in vivo, 336 h, time 14 day
[18] = Upregulation of […] expression level in human HepG2 cells assessed as fold change by KEGG enrichment analysis; assay type: functional
[19] = Upregulation of CXCL2 expression level in human HepG2 cells assessed as fold change by KEGG enrichment analysis; assay type: functional
[20] = Effect on MAML3 expression level in human HepG2 cells assessed as fold change by KEGG enrichment analysis; assay type: functional
[21] = Downregulation of NOTCH3 expression level in human HepG2 cells assessed as fold change by KEGG enrichment analysis; assay type: functional
[22] = Downregulation of DKK1 expression level in human HepG2 cells assessed as fold change by KEGG enrichment analysis; assay type: functional
[23] = in vitro; details: human, Caco-2
Description: Apparent permeability of compound in human Caco-2 cells at 10 uM measured upto 120 mins by LC-MS/MS analysis

IC50 [1]: 12.8 µM
Papp at 2 h, 10 µM [23]: > 200 nm/s
SMILES: CC(C)C[C@H]1NC(=O)[C@H]([C@@H](C)OCc2ccccc2)NC(=O)[C@H]2CCCN2C(=O)CN2C(=O)c3ccccc3[C@@]2(O)CN(Cc2ccccc2)C(=O)[C@H](Cc2ccccc2)NC(=O)[C@H]2CCCN2C(=O)[C@H](Cc2c[nH]c3ccccc23)NC1=O
Activity [2]: Active
Activity [3]: Active
viability at 5 µM [4]: 80.8%
viability at 10 µM [5]: 68.1%
Activity [6]: 27.3%
Activity [7]: 2.4%
Activity [8]: 6.88%
Activity [9]: 0%
Activity [10]: 33.5%
Activity [11]: 14.3%
Activity [12]: 23.3%
Activity [13]: 4.68%
Activity [14]: 1.12%
Activity [15]: Active
Activity [16]: Non-Toxic
Activity [17]: Non-Toxic
fold change (FC) [18]: 1.218
fold change (FC) [19]: 1.751
fold change (FC) [20]: -1.198
fold change (FC) [21]: -1.52
fold change (FC) [22]: -3.288
